Tests used:
[1] = Intraperitoneal glucose tolerance test and plasma insulin (in vivo); parameters: species or system mice; conditions: for effect on blood glucose concentration compared to control: glucose tolerance test in vivo
Method: (A) n=8 mice for control and n=7 mice for Kom56, (D) n=8 mice each. (B,E) Blood glucose concentrations of mice during i.p. glucose tolerance tests with 1.5 mg/g BW glucose with or without i.p. compound administration. n=8 mice each. (C,F) AUC0-120min calculation of blood glucose concentrations of B,E. Statistical testing: (A,D) two-way ANOVA followed by Sidak's multiple comparison test. (B,C,E,F) unpaired two-sided Student's t-test. All values are shown with mean±SEM, except for glucose tolerance tests (B,E), in which all values are mean±SD.
Further, glucose tolerance tests (in vivo) were performed, if the corresponding in vitro assays were “positive”.
Glucose tolerance tests for the compounds were performed like in paragraph [0209].

[2] = target: T1, potassium voltage-gated channel subfamily H member 2 (hERG) (Homo sapiens, UniProt Q12809); experiment: hERG channel binding assay ([3H] Dofetilide); conditions: SafetyScreen44 Panel, test concentration 1.0 10^−5 M
T1 construct: expressed in transfected cells; host or cells: HEK-293
Method: (§1) For the hERG channel binding assay, compound binding was calculated as % inhibition of the binding of a radioactively labeled ligand that is specific for the target (i.e., [3H] Dofetilide). HEK-293 cells (human embryonic kidney cells) were used for these binding assays. The compounds were tested at a concentration of 10 μM and 2 repetitions were conducted for each compound.

[3] = target: μ-opioid (MOP) receptor (Homo sapiens, UniProt P35372); experiment: MOP receptor inhibition, SafetyScreen44 Panel; assay type: binding; conditions: test concentration 1.0 10^−5 M
[4] = tested on: mouse pancreatic islets; experiment: Insulin secretion assay on isolated pancreatic islets (in vitro); assay type: cell-based; conditions: low (2 mM) and high glucose (20 mM), FIG. 1
Method: Statistical testing: two-way ANOVA followed by Sidak's multiple comparison test. All values are shown with mean±SEM.
Further, insulin secretion assays (in vitro) were performed.
Insulin secretion assays for the compounds were performed like in paragraph [0208].

[5] = Oral glucose tolerance test and plasma insulin (in vivo); conditions: mice, FIG. 3
Method: (B) Blood glucose concentrations of mice during oral glucose tolerance test with 1.5 mg/g BW glucose with or without p.o. compound administration. n=7 mice for control and n=8 mice for Kom56. (C) AUC0-120min calculation of blood glucose concentrations of B. Statistical testing: (A) two-way ANOVA followed by Sidak's multiple comparison test. (B,C) unpaired two-sided Student's t-test. All values are shown with mean±SEM, except for glucose tolerance test (B), in which all values are mean±SD.

[6] = Von Frey monofilament paw withdrawal test; assay type: in vivo; conditions: mice, i.p. administration, paw withdrawal thresholds versus PBS, FIG. 5
Excerpt: (A) Force that is needed to reach a 50% threshold, and (B) force that is needed to reach a 75% threshold in paw withdrawal. n=6 mice each. Statistical testing: (A,B) unpaired two-sided Student's t-test. All values are shown with mean±SEM.

[7] = tested on: mouse pancreatic islets; experiment: Islet cell death induced by oxidative stress (H2O2), flow cytometry; assay type: cell-based; conditions: 150 μM H2O2, 1 and 0.1 μM Kom56, 24 h, FIG. 6
Method: (A) Healthy control, (B) pancreatic islets incubated with 150 μM H2O2, (C) 150 μM H2O2 plus 1 μM Kom56, and (D) 150 μM H2O2 plus 0.1 μM Kom56. Analyzed by flow cytometry. Pancreatic islets were dissociated using trypsin and stained with Fixable Viability Stain 660 (FVS660). FVS660+=dead cells, FVS660-=living cells, values are shown in %.

[8] = tested on: mouse pancreatic islets; experiment: Streptozotocin-induced islet cell death; assay type: cell-based; conditions: 2 mM streptozotocin, 1 μM Kom56, 24 h, FIG. 7
Excerpt: Blue (Hoechst), nuclei; red (ethidium homodimer1), dead cells; green (calcein), viable cells. (B) Area of dead cells in mouse islets treated as described in A. n=4 islet batches each with 11-14 islets per batch for each group. Statistical testing: (B) one-way ANOVA followed by Tukey's multiple comparison test. All values are shown with mean±SEM. (A) Scale bars, 50 μm.

[9] = target: T2, hERG (potassium voltage-gated channel subfamily H member 2) (Homo sapiens, UniProt Q12809); experiment: hERG channel binding assay ([3H] Dofetilide); conditions: human, HEK-293 cells (hERG channel binding assay), probe [3H] Dofetilide; 10 μM, [3H] Dofetilide, HEK-293 cells, 2 repetitions; read-out: hERG inhibition (% inhibition of the binding of a ligand specific for the target)
T2 construct: expressed in transfected cells; host or cells: HEK-293
Method: as §1

[10] = tested on: SafetyScreen44™ Panel with all 44 targets; experiment: SafetyScreen44 Panel toxicological test; conditions: test concentration 1.0 10^−5 M
Method: Inhibition of potassium voltage-gated channel subfamily H member 2 (hERG) of the compounds was measured as in the SafetyScreen44™ Panel (see Example 3). The hERG channel binding assay is part of the SafetyScreen44™ Panel, but can also be conducted solely. The entire SafetyScreen44™ Panel with all 44 targets was just conducted for the three compounds as shown in [0206], for the other molecules just the hERG inhibition was measured.

Chain of μ-opioid (MOP) receptor (P35372 whole entry): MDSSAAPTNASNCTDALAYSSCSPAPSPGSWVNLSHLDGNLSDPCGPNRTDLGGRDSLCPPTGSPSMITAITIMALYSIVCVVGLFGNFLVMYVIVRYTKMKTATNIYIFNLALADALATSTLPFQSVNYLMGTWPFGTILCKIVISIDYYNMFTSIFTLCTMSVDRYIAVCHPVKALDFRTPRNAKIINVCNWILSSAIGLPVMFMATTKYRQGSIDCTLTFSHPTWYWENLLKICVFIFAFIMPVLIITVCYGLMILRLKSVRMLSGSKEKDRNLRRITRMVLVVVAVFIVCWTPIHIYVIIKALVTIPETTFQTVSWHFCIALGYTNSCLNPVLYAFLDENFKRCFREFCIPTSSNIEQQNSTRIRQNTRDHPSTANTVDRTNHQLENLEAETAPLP
T1 sequence (Q12809 whole entry): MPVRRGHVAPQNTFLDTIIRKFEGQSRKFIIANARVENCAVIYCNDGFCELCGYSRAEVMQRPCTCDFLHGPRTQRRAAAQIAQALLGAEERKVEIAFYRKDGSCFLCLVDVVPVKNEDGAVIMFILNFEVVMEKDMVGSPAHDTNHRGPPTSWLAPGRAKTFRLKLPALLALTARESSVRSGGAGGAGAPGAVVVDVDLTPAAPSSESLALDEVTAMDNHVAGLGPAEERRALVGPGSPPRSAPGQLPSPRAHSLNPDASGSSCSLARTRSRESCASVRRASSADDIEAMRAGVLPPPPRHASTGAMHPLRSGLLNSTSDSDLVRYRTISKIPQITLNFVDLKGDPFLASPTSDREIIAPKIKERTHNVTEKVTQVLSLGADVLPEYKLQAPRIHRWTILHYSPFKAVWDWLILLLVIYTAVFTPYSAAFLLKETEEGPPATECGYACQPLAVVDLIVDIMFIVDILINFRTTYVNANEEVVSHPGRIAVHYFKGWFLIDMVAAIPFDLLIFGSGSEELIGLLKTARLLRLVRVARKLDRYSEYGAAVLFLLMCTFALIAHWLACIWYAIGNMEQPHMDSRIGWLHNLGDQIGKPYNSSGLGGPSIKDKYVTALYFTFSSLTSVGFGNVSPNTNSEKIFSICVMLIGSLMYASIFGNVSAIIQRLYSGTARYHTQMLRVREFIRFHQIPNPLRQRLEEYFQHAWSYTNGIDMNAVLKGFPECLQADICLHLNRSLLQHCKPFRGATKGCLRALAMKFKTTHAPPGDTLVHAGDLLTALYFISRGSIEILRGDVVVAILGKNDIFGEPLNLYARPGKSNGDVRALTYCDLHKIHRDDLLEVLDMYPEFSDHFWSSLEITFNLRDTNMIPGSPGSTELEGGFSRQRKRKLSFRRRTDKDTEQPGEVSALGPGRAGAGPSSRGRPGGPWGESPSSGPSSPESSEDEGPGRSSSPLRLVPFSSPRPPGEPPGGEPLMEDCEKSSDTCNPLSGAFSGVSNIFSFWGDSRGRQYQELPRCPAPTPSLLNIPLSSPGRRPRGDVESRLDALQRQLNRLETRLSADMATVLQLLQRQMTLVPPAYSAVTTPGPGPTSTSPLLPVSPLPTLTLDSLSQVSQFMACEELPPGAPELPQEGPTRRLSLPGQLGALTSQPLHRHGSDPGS
T2 sequence (Q12809 whole entry): as above

Compound	effect on blood glucose concentration compared to control [1]	hERG inhibition [%] [2] [%]	toxicology (hits with over 50% inhibition) [10]	inhibition at 10 µM [3] [%]	further results
4-[(1S,9S)-4-methoxy-17-methyl-17-azatetracyclo[7.5.3.0^1,^10,0^2,^7]heptadeca-2(7),3,5-trien-5-yl]-1-methylpiperazin-2-one [Compound 36]	slightly positive effect	–	–	–	–
COc1cc2c(cc1NC(=O)c1cncn1C)C[C@H]1C3CCCC[C@@]23CCN1C (stereo partly drawn) [Compound 7, N-[(1S,9S)-4-methoxy-17-methyl-17-azatetracyclo[7.5.3.0^1,^10,0^2,^7]heptadeca-2(7),3,5-trien-5-yl]-1-methyl-1H-imidazole-5-carboxamide]	significant effect	7.9	–	–	MOP inhibition [%] [3]: 33.7%; glucose-stimulated insulin secretion from mouse pancreatic islets [4]: increases the glucose-stimulated insulin secretion; plasma insulin concentrations ([1]; mice, 30 min after i.p. administration together with glucose, FIG. 2): increases plasma insulin concentrations; glucose tolerance ([1]; mice, i.p. glucose tolerance test, 1.5 mg/g BW glucose, i.p. compound, FIG. 2): improves glucose tolerance; plasma insulin concentrations ([5]; 30 min after p.o. administration together with glucose): increases plasma insulin concentrations; glucose tolerance ([5]; oral glucose tolerance test, 1.5 mg/g BW glucose, p.o. compound): improves glucose tolerance; touch sensitivity during mechanical stimulation with Von Frey monofilaments [6]: reduces touch sensitivity; protection from cell death induced by oxidative stress [7]: protects mouse pancreatic islets from cell death induced by oxidative stress; protection from streptozotocin-induced cell death [8]: protects mouse pancreatic islets from streptozotocin-induced cell death
COc1cc2c(cc1N1CC(N(C)C)C1)C[C@H]1C3CCCC[C@@]23CCN1C (stereo partly drawn) [Compound 35, 1-[(1S,9S)-4-methoxy-17-methyl-17-azatetracyclo[7.5.3.0^1,^10,0^2,^7]heptadeca-2(7),3,5-trien-5-yl]-N,N-dimethylazetidin-3-amine]	slightly positive effect	–	–	–	inhibition at 10 µM [9]: < 15%
COc1ccc2c(c1)[C@]13CCCC[C@@H]1[C@H](C2)N(C)CC3 [DXM, dextromethorphan]	–	20.9	6	85	–
Br.Br.COc1cc2c(cc1-n1ccnc1)C[C@H]1[C@H]3CCCC[C@@]23CCN1C [DXM-2, (9S, 13S, 14S)-2-(1H-Imidazol-1-yl)-3-methoxy-17-methyl morphinan dihydrobromide]	–	51.8	7	83.6	–

Reference: patent publication US20250223262A1, “[…] OF […] REDUCED HERG ACTIVITY AND MOP BINDING” (Heinrich-Heine-Universität Düsseldorf, priority 2022, published 2025)
